Columns and labels:
rice = assay: Test B flooded paddy test; assay type: in vivo, Oryza sativa; conditions: Flood, 250 g ai/ha, 0 to 100 scale where 0 is no effect and 100 is complete control
How it was run: (§1)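 Scores from 0 (no effect) to 100 (complete control) are visual comparisons with controls, taken 13 to 15 days after compound was applied into floodwater 3 cm deep around 2-leaf plants.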

chickweed = assay: Test C postemergence; assay type: in vivo, Stellaria media
How it was run: (§2)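 Injury was assessed visually against controls 13 to 15 days after application, with 0 meaning no effect and 100 full control; missing entries are shown as a dash. Preemergence sprays hit seeded loam–sand soil, postemergence sprays hit 1- to 4-leaf plants.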

waterhemp = assay: Test C postemergence; assay type: in vivo, Amaranthus rudis; conditions: for Waterhemp plant response rating: 31 g ai/ha
How it was run: as §2

galium = assay: Test C postemergence; assay type: in vivo, Galium aparine
How it was run: as §2

oilseed rape = assay: Test C postemergence; assay type: in vivo, Brassica napus; conditions: for Oilseed Rape plant response rating: 31 g ai/ha
How it was run: as §2

sedge, umbrella = assay: Test B flooded paddy test; assay type: in vivo, Cyperus difformis; conditions: Flood, 250 g ai/ha, 0 to 100 scale where 0 is no effect and 100 is complete control
How it was run: as §1

lambsquarters = assay: Test C postemergence; assay type: in vivo, Chenopodium album; conditions: for Lambsquarters plant response rating: 31 g ai/ha
How it was run: as §2

pigweed = assay: Test A postemergence; assay type: in vivo, Amaranthus retroflexus; conditions: 0 to 100 scale, 0 no effect, 100 complete control
How it was run: (§3)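 Greenhouse pot test, loam/sand soil. Formulation: non-phytotoxic solvent mix plus surfactant. Pre: directed spray onto soil after sowing. Post: plants at 1–2 leaf, 2–10 cm. Rated visually vs untreated controls at ~10 d, 0 (no effect) to 100 (complete control).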

barnyardgrass = assay: Test B flooded paddy test; assay type: in vivo, Echinochloa crus-galli; conditions: Flood, 250 g ai/ha, 0 to 100 scale where 0 is no effect and 100 is complete control
How it was run: as §1

soybean = assay: Test C postemergence; assay type: in vivo, Glycine max; conditions: for Soybean plant response rating: 31 g ai/ha
How it was run: as §2

giant foxtail [1] = assay: Test A postemergence; assay type: in vivo, Setaria faberii; conditions: 0 to 100 scale, 0 no effect, 100 complete control
How it was run: as §3

giant foxtail [2] = assay: Test A preemergence; assay type: in vivo, Setaria faberii; conditions: for Foxtail, Giant plant response rating (0 to 100 scale): 125 g ai/ha
How it was run: as §3

Italian ryegrass = assay: Test C postemergence; assay type: in vivo, Lolium multiflorum; conditions: for Ryegrass, Italian plant response rating: 31 g ai/ha
How it was run: as §2

[3] = 16 g ai/ha, postemergence, 0 is no effect, 100 is complete control
[4] = 31 g ai/ha, postemergence, visual rating, scale 0 to 100 (0 no effect, 100 complete control), 13 to 15 days
[5] = 125 g ai/ha, postemergence, visual rating, scale 0 to 100 (0 no effect, 100 complete control)
[6] = Postemergence, 62 g ai/ha, scale 0 to 100 (0 no effect, 100 complete control), 13 to 15 days
[7] = postemergence, visual rating, scale 0 to 100 (0 no effect, 100 complete control), 13 to 15 days

FCc1cccc(Oc2ncc(Cl)cn2)c1-n1cc(I)cn1 [Compound 245]
Plant response rating, Rice (rice): 0
Plant response rating (0 to 100), Chickweed (chickweed; [3]): 5
Chickweed plant response rating (chickweed; [4]): 60
Plant response rating, Chickweed (chickweed; [5]): 100
Plant response rating, Chickweed (chickweed; [6]): 80
Plant response rating (0 to 100), Waterhemp (waterhemp; [3]): 60
Waterhemp plant response rating (waterhemp; [7]): 65
Plant response rating, Waterhemp (waterhemp; [5]): 75
Plant response rating, Waterhemp (waterhemp; [6]): 85
Plant response rating (0 to 100), Galium (galium; [3]): 60
Galium plant response rating (galium; [4]): 60
Plant response rating, Galium (galium; [5]): 85
Plant response rating, Galium (galium; [6]): 80
Plant response rating (0 to 100), Oilseed Rape (oilseed rape; [3]): 40
Oilseed Rape plant response rating (oilseed rape; [7]): 50
Plant response rating, Oilseed Rape (oilseed rape; [5]): 80
Plant response rating, Oilseed Rape (oilseed rape; [6]): 50
Plant response rating, Sedge, Umbrella (sedge, umbrella): 60
Plant response rating (0 to 100), Lambsquarters (lambsquarters; [3]): 50
Lambsquarters plant response rating (lambsquarters; [7]): 70
Plant response rating, Lambsquarters (lambsquarters; [5]): 98
Plant response rating, Lambsquarters (lambsquarters; [6]): 80
Plant response rating, Pigweed (pigweed; 31 g ai/ha): 0
Plant response rating, Pigweed (pigweed; 125 g ai/ha): 90
Plant response rating, Barnyardgrass (barnyardgrass): 0
Plant response rating (0 to 100), Soybean (soybean; [3]): 40
Soybean plant response rating (soybean; [7]): 60
Plant response rating, Soybean (soybean; [5]): 90
Plant response rating, Soybean (soybean; [6]): 60
Plant response rating, Foxtail, Giant (giant foxtail [1]; 31 g ai/ha): 0
Plant response rating, Foxtail, Giant (giant foxtail [1]; 125 g ai/ha): 80
Plant response rating, Foxtail, Giant (giant foxtail [2]; 31 g ai/ha, 0 to 100 scale where 0 is no effect and 100 is complete control, visual, approximately 10 days): 60
Foxtail, Giant plant response rating (0 to 100 scale) (giant foxtail [2]): 100
Plant response rating (0 to 100), Ryegrass, Italian (Italian ryegrass; [3]): 0
Ryegrass, Italian plant response rating (Italian ryegrass; [7]): 0
Plant response rating, Ryegrass, Italian (Italian ryegrass; [5]): 5
Plant response rating, Ryegrass, Italian (Italian ryegrass; [6]): 0

N#Cc1cccc(Oc2ncc(Cl)cn2)c1-n1cc(C(F)F)cn1 [Compound 253, 3-(5-chloropyrimidin-2-yl)oxy-2-[4-(difluoromethyl)-1H-pyrazol-1-yl]benzonitrile]
plant injury at 250 g/ha (rice; Oryza sativa, read-out: Plant response rating, Rice): 25%
pest or weed control at 16 g/ha (chickweed; Stellaria media, post-emergence, 16 g ai/ha, postemergence, 0 is no effect, 100 is complete control, read-out: Plant response rating (0 to 100), Chickweed): 60%
pest or weed control at 31 g/ha (chickweed; Stellaria media, post-emergence, 31 g ai/ha, postemergence, visual rating, scale 0 to 100 (0 no effect, 100 complete control), 13 to 15 days, read-out: Chickweed plant response rating): 70%
pest or weed control at 125 g/ha (chickweed; Stellaria media, post-emergence, 125 g ai/ha, postemergence, visual rating, scale 0 to 100 (0 no effect, 100 complete control), read-out: Plant response rating, Chickweed): 90%
pest or weed control at 62 g/ha (chickweed; Stellaria media, post-emergence, Postemergence, 62 g ai/ha, scale 0 to 100 (0 no effect, 100 complete control), 13 to 15 days, read-out: Plant response rating, Chickweed): 90%
Waterhemp plant response rating (waterhemp; [7]): 75
pest or weed control at 16 g/ha (waterhemp; Amaranthus tuberculatus, post-emergence, 16 g ai/ha, postemergence, 0 is no effect, 100 is complete control, read-out: Plant response rating (0 to 100), Waterhemp): 75%
pest or weed control at 125 g/ha (waterhemp; Amaranthus tuberculatus, post-emergence, 125 g ai/ha, postemergence, visual rating, scale 0 to 100 (0 no effect, 100 complete control), read-out: Plant response rating, Waterhemp): 85%
pest or weed control at 62 g/ha (waterhemp; Amaranthus tuberculatus, post-emergence, Postemergence, 62 g ai/ha, scale 0 to 100 (0 no effect, 100 complete control), 13 to 15 days, read-out: Plant response rating, Waterhemp): 80%
pest or weed control at 16 g/ha (galium; Galium, post-emergence, 16 g ai/ha, postemergence, 0 is no effect, 100 is complete control, read-out: Plant response rating (0 to 100), Galium): 45%
pest or weed control at 31 g/ha (galium; Galium, post-emergence, 31 g ai/ha, postemergence, visual rating, scale 0 to 100 (0 no effect, 100 complete control), 13 to 15 days, read-out: Galium plant response rating): 80%
pest or weed control at 125 g/ha (galium; Galium, post-emergence, 125 g ai/ha, postemergence, visual rating, scale 0 to 100 (0 no effect, 100 complete control), read-out: Plant response rating, Galium): 100%
pest or weed control at 62 g/ha (galium; Galium, post-emergence, Postemergence, 62 g ai/ha, scale 0 to 100 (0 no effect, 100 complete control), 13 to 15 days, read-out: Plant response rating, Galium): 80%
Oilseed Rape plant response rating (oilseed rape; [7]): 60
plant injury at 16 g/ha (oilseed rape; Brassica napus, post-emergence, 16 g ai/ha, postemergence, 0 is no effect, 100 is complete control, read-out: Plant response rating (0 to 100), Oilseed Rape): 5%
plant injury at 125 g/ha (oilseed rape; Brassica napus, post-emergence, 125 g ai/ha, postemergence, visual rating, scale 0 to 100 (0 no effect, 100 complete control), read-out: Plant response rating, Oilseed Rape): 80%
plant injury at 62 g/ha (oilseed rape; Brassica napus, post-emergence, Postemergence, 62 g ai/ha, scale 0 to 100 (0 no effect, 100 complete control), 13 to 15 days, read-out: Plant response rating, Oilseed Rape): 10%
pest or weed control at 250 g/ha (sedge, umbrella; Cyperus difformis, read-out: Plant response rating, Sedge, Umbrella): 85%
Lambsquarters plant response rating (lambsquarters; [7]): 80
pest or weed control at 16 g/ha (lambsquarters; Chenopodium album, post-emergence, 16 g ai/ha, postemergence, 0 is no effect, 100 is complete control, read-out: Plant response rating (0 to 100), Lambsquarters): 30%
pest or weed control at 125 g/ha (lambsquarters; Chenopodium album, post-emergence, 125 g ai/ha, postemergence, visual rating, scale 0 to 100 (0 no effect, 100 complete control), read-out: Plant response rating, Lambsquarters): 95%
pest or weed control at 62 g/ha (lambsquarters; Chenopodium album, post-emergence, Postemergence, 62 g ai/ha, scale 0 to 100 (0 no effect, 100 complete control), 13 to 15 days, read-out: Plant response rating, Lambsquarters): 80%
pest or weed control at 31 g/ha (pigweed; Amaranthus retroflexus, post-emergence, 31 g ai/ha, read-out: Plant response rating, Pigweed): 90%
pest or weed control at 125 g/ha (pigweed; Amaranthus retroflexus, post-emergence, 125 g ai/ha, read-out: Plant response rating, Pigweed): 100%
pest or weed control at 250 g/ha (barnyardgrass; Echinochloa crus-galli, read-out: Plant response rating, Barnyardgrass): 40%
Soybean plant response rating (soybean; [7]): 60
Soybean plant response rating (crop injury, 0-100 scale) at 16 g/ha (soybean; Glycine max, post-emergence, 16 g ai/ha, postemergence, 0 is no effect, 100 is complete control): 40%
Soybean plant response rating (crop injury, 0-100 scale) at 125 g/ha (soybean; Glycine max, post-emergence, 125 g ai/ha, postemergence, visual rating, scale 0 to 100 (0 no effect, 100 complete control), read-out: Plant response rating, Soybean): 90%
Soybean plant response rating (crop injury, 0-100 scale) at 62 g/ha (soybean; Glycine max, post-emergence, Postemergence, 62 g ai/ha, scale 0 to 100 (0 no effect, 100 complete control), 13 to 15 days): 40%
pest or weed control at 31 g/ha (giant foxtail [1]; Setaria faberi, post-emergence, 240 h, 31 g ai/ha, read-out: Plant response rating, Foxtail, Giant): 20%
pest or weed control at 125 g/ha (giant foxtail [1]; Setaria faberi, post-emergence, 240 h, 125 g ai/ha, read-out: Plant response rating, Foxtail, Giant): 100%
Foxtail, Giant plant response rating (0 to 100 scale) (giant foxtail [2]): 100
pest or weed control at 31 g/ha (giant foxtail [2]; Setaria faberi, pre-emergence, 240 h, 31 g ai/ha, 0 to 100 scale where 0 is no effect and 100 is complete control, visual, approximately 10 days, read-out: Plant response rating, Foxtail, Giant): 70%
Ryegrass, Italian plant response rating (Italian ryegrass; [7]): 0
pest or weed control at 16 g/ha (Italian ryegrass; Lolium multiflorum, post-emergence, 16 g ai/ha, postemergence, 0 is no effect, 100 is complete control, read-out: Plant response rating (0 to 100), Ryegrass, Italian): 0%
pest or weed control at 125 g/ha (Italian ryegrass; Lolium multiflorum, post-emergence, 125 g ai/ha, postemergence, visual rating, scale 0 to 100 (0 no effect, 100 complete control), read-out: Plant response rating, Ryegrass, Italian): 0%
pest or weed control at 62 g/ha (Italian ryegrass; Lolium multiflorum, post-emergence, Postemergence, 62 g ai/ha, scale 0 to 100 (0 no effect, 100 complete control), 13 to 15 days, read-out: Plant response rating, Ryegrass, Italian): 0%
